Test results published in article PMC9516332 (Frontiers in Oncology, 2022).
pIC50: −log10 of the molar value. Like-named read-outs stand apart in the source and are kept apart here.

How the values were obtained:
[1] = test system: AP-1060 (ETV6-NTRK3); assay: Cell viability assay; conditions: read-out: IC50 in cell proliferation assay
[2] = test system: 134 cancer cell lines; assay: Cell viability assay (ATPlite, 72 hours), IC50 on cancer cell line panel

Structure (SMILES): COc1cc(N2CCC(N3CCN(C)CC3)CC2)ccc1Nc1ncc(Cl)c(Nc2ccccc2P(C)(C)=O)n1 [brigatinib]
- pIC50 [1]: 5.62
- pIC50 ([2]; HEC-6, read-out: IC50 in cell proliferation assay): 5.28
- pIC50 ([2]; Homo sapiens, 769-P, read-out: IC50 in cell proliferation assay): 5.72
- pIC50 ([2]; Homo sapiens, 786-0, read-out: IC50 in cell proliferation assay): 5.68
- pIC50 ([2]; Homo sapiens, A 172, read-out: IC50 in cell proliferation assay): 6.05
- pIC50 ([2]; Homo sapiens, A204, read-out: IC50 in cell proliferation assay): 5.90
- pIC50 ([2]; Homo sapiens, A498, read-out: IC50 in cell proliferation assay): 5.73
- pIC50 ([2]; Homo sapiens, A549, read-out: IC50 in cell proliferation assay): 6.05
- pIC50 ([2]; Homo sapiens, A704, read-out: IC50 in cell proliferation assay): 5.44
- pIC50 ([2]; Homo sapiens, A-375, read-out: IC50 in cell proliferation assay): 6.14
- pIC50 ([2]; Homo sapiens, A-427, read-out: IC50 in cell proliferation assay): 6.35
- pIC50 ([2]; Homo sapiens, ACHN, read-out: IC50 in cell proliferation assay): 6.05
- pIC50 ([2]; Homo sapiens, AN3-CA, read-out: IC50 in cell proliferation assay): 5.73
- pIC50 ([2]; Homo sapiens, ASPC1, read-out: IC50 in cell proliferation assay): 6.09
- pIC50 ([2]; Homo sapiens, AU565, read-out: IC50 in cell proliferation assay): 5.59
- pIC50 ([2]; Homo sapiens, BT-20, read-out: IC50 in cell proliferation assay): 5.38
- pIC50 ([2]; Homo sapiens, BT-474, read-out: IC50 in cell proliferation assay): 5.10
- pIC50 ([2]; Homo sapiens, BT-549, read-out: IC50 in cell proliferation assay): 5.52
- pIC50 ([2]; Homo sapiens, BXPC-3, read-out: IC50 in cell proliferation assay): 6.21
- pIC50 ([2]; Homo sapiens, C-33-A, read-out: IC50 in cell proliferation assay): 6.28
- pIC50 ([2]; Homo sapiens, CAL-27, read-out: IC50 in cell proliferation assay): 6.17
- pIC50 ([2]; Homo sapiens, CCF-STTG1, read-out: IC50 in cell proliferation assay): 5.46
- pIC50 ([2]; Homo sapiens, CCRF-CEM, read-out: IC50 in cell proliferation assay): 5.44
- pIC50 ([2]; Homo sapiens, COLO 205, read-out: IC50 in cell proliferation assay): 6.00
- pIC50 ([2]; Homo sapiens, COLO-829, read-out: IC50 in cell proliferation assay): 5.59
- pIC50 ([2]; Homo sapiens, DLD-1, read-out: IC50 in cell proliferation assay): 5.33
- pIC50 ([2]; Homo sapiens, DU-145, read-out: IC50 in cell proliferation assay): 6.18
- pIC50 ([2]; Homo sapiens, DU-4475, read-out: IC50 in cell proliferation assay): 5.75
- pIC50 ([2]; Homo sapiens, Daoy, read-out: IC50 in cell proliferation assay): 5.51
- pIC50 ([2]; Homo sapiens, DoTc2-4510, read-out: IC50 in cell proliferation assay): 6.57
- pIC50 ([2]; Homo sapiens, EOL1, read-out: IC50 in cell proliferation assay): 7.30
- pIC50 ([2]; Homo sapiens, FaDu, read-out: IC50 in cell proliferation assay): 6.01
- pIC50 ([2]; Homo sapiens, G-361, read-out: IC50 in cell proliferation assay): 5.03
- pIC50 ([2]; Homo sapiens, HCC827, read-out: IC50 in cell proliferation assay): 6.89
- pIC50 ([2]; Homo sapiens, HCC4006, read-out: IC50 in cell proliferation assay): 6.82
- pIC50 ([2]; Homo sapiens, HCT-15, read-out: IC50 in cell proliferation assay): 5.42
- pIC50 ([2]; Homo sapiens, HCT-116, read-out: IC50 in cell proliferation assay): 5.77
- pIC50 ([2]; Homo sapiens, HEC-1, read-out: IC50 in cell proliferation assay): 5.74
- pIC50 ([2]; Homo sapiens, HEC-1B, read-out: IC50 in cell proliferation assay): 6.44
- pIC50 ([2]; Homo sapiens, HL-60, read-out: IC50 in cell proliferation assay): 5.95
- pIC50 ([2]; Homo sapiens, HT, read-out: IC50 in cell proliferation assay): 5.34
- pIC50 ([2]; Homo sapiens, HT-1080, read-out: IC50 in cell proliferation assay): 5.78
- pIC50 ([2]; Homo sapiens, Hs746T, read-out: IC50 in cell proliferation assay): 5.67
- pIC50 ([2]; Homo sapiens, Hs-578T, read-out: IC50 in cell proliferation assay): 5.86
- pIC50 ([2]; Homo sapiens, HuTu80, read-out: IC50 in cell proliferation assay): 6.35
- pIC50 ([2]; Homo sapiens, J82, read-out: IC50 in cell proliferation assay): 5.73
- pIC50 ([2]; Homo sapiens, Jurkat E6.1, read-out: IC50 in cell proliferation assay): 5.36
- pIC50 ([2]; Homo sapiens, K562, read-out: IC50 in cell proliferation assay): 5.56
- pIC50 ([2]; Homo sapiens, KATO III, read-out: IC50 in cell proliferation assay): 6.68
- pIC50 ([2]; Homo sapiens, KG-1, read-out: IC50 in cell proliferation assay): 6.61
- pIC50 ([2]; Homo sapiens, KLE, read-out: IC50 in cell proliferation assay): 6.26
- pIC50 ([2]; Homo sapiens, KMS-11, read-out: IC50 in cell proliferation assay): 6.37
- pIC50 ([2]; Homo sapiens, KU812, read-out: IC50 in cell proliferation assay): 5.86
- pIC50 ([2]; Homo sapiens, Kasumi 1, read-out: IC50 in cell proliferation assay): 6.68
- pIC50 ([2]; Homo sapiens, LC-2-ad, read-out: IC50 in cell proliferation assay): 6.48
- pIC50 ([2]; Homo sapiens, LNCaP-Clone-FGC, read-out: IC50 in cell proliferation assay): 6.16
- pIC50 ([2]; Homo sapiens, LS174T, read-out: IC50 in cell proliferation assay): 5.88
- pIC50 ([2]; Homo sapiens, LS-411N, read-out: IC50 in cell proliferation assay): 5.75
- pIC50 ([2]; Homo sapiens, LoVo, read-out: IC50 in cell proliferation assay): 5.70
- pIC50 ([2]; Homo sapiens, MCF7, read-out: IC50 in cell proliferation assay): 6.22
- pIC50 ([2]; Homo sapiens, MDA-MB-231, read-out: IC50 in cell proliferation assay): 5.70
- pIC50 ([2]; Homo sapiens, MDA-MB-453, read-out: IC50 in cell proliferation assay): 5.18
- pIC50 ([2]; Homo sapiens, MDA-MB-468, read-out: IC50 in cell proliferation assay): 5.70
- pIC50 ([2]; Homo sapiens, MG-63, read-out: IC50 in cell proliferation assay): 5.98
- pIC50 ([2]; Homo sapiens, MIA PaCa-2, read-out: IC50 in cell proliferation assay): 5.92
- pIC50 ([2]; Homo sapiens, MKN-45, read-out: IC50 in cell proliferation assay): 5.58
- pIC50 ([2]; Homo sapiens, MOLM-13, read-out: IC50 in cell proliferation assay): 7.24
- pIC50 ([2]; Homo sapiens, MOLT-4, read-out: IC50 in cell proliferation assay): 5.71
- pIC50 ([2]; Homo sapiens, MV4-11, read-out: IC50 in cell proliferation assay): 7.48
- pIC50 ([2]; Homo sapiens, MeWo, read-out: IC50 in cell proliferation assay): < 5.00
- pIC50 ([2]; Homo sapiens, NCCIT, read-out: IC50 in cell proliferation assay): 5.57
- pIC50 ([2]; Homo sapiens, NCI-H82, read-out: IC50 in cell proliferation assay): 5.70
- pIC50 ([2]; Homo sapiens, NCI-H460, read-out: IC50 in cell proliferation assay): 5.86
- pIC50 ([2]; Homo sapiens, NCI-H661, read-out: IC50 in cell proliferation assay): 6.40
- pIC50 ([2]; Homo sapiens, NCI-H716, read-out: IC50 in cell proliferation assay): 6.70
- pIC50 ([2]; Homo sapiens, NCI-H1650, read-out: IC50 in cell proliferation assay): 6.17
- pIC50 ([2]; Homo sapiens, NCI-H1975, read-out: IC50 in cell proliferation assay): 6.35
- pIC50 ([2]; Homo sapiens, NCI-H2228, read-out: IC50 in cell proliferation assay): 8.10
- pIC50 ([2]; Homo sapiens, OVCAR-3, read-out: IC50 in cell proliferation assay): 6.03
- pIC50 ([2]; Homo sapiens, PFSK-1, read-out: IC50 in cell proliferation assay): 6.23
- pIC50 ([2]; Homo sapiens, RL95-2, read-out: IC50 in cell proliferation assay): 6.19
- pIC50 ([2]; Homo sapiens, RPMI-7951, read-out: IC50 in cell proliferation assay): 5.89
- pIC50 ([2]; Homo sapiens, RS4-11, read-out: IC50 in cell proliferation assay): 6.33
- pIC50 ([2]; Homo sapiens, Rec1, read-out: IC50 in cell proliferation assay): 5.88
- pIC50 ([2]; Homo sapiens, SHP77, read-out: IC50 in cell proliferation assay): 5.28
- pIC50 ([2]; Homo sapiens, SK-BR-3, read-out: IC50 in cell proliferation assay): 5.87
- pIC50 ([2]; Homo sapiens, SK-N-AS, read-out: IC50 in cell proliferation assay): 6.21
- pIC50 ([2]; Homo sapiens, SK-N-FI, read-out: IC50 in cell proliferation assay): 5.96
- pIC50 ([2]; Homo sapiens, SK-N-MC, read-out: IC50 in cell proliferation assay): 6.40
- pIC50 ([2]; Homo sapiens, SK-N-SH, read-out: IC50 in cell proliferation assay): 6.44
- pIC50 ([2]; Homo sapiens, SNU-5, read-out: IC50 in cell proliferation assay): 5.67
- pIC50 ([2]; Homo sapiens, SNU-16, read-out: IC50 in cell proliferation assay): 6.42
- pIC50 ([2]; Homo sapiens, SNU-C2B, read-out: IC50 in cell proliferation assay): 6.13
- pIC50 ([2]; Homo sapiens, SU-DHL-1, read-out: IC50 in cell proliferation assay): 7.46
- pIC50 ([2]; Homo sapiens, SU-DHL-6, read-out: IC50 in cell proliferation assay): 5.87
- pIC50 ([2]; Homo sapiens, SUP-T1, read-out: IC50 in cell proliferation assay): 5.83
- pIC50 ([2]; Homo sapiens, SW48, read-out: IC50 in cell proliferation assay): 6.15
- pIC50 ([2]; Homo sapiens, SW480, read-out: IC50 in cell proliferation assay): 5.96
- pIC50 ([2]; Homo sapiens, SW626, read-out: IC50 in cell proliferation assay): 5.89
- pIC50 ([2]; Homo sapiens, SW780, read-out: IC50 in cell proliferation assay): 6.50
- pIC50 ([2]; Homo sapiens, SW837, read-out: IC50 in cell proliferation assay): 6.18
- pIC50 ([2]; Homo sapiens, SW872, read-out: IC50 in cell proliferation assay): 6.11
- pIC50 ([2]; Homo sapiens, SW900, read-out: IC50 in cell proliferation assay): 6.27
- pIC50 ([2]; Homo sapiens, SW948, read-out: IC50 in cell proliferation assay): 5.84
- pIC50 ([2]; Homo sapiens, SW982, read-out: IC50 in cell proliferation assay): 6.31
- pIC50 ([2]; Homo sapiens, SW-620, read-out: IC50 in cell proliferation assay): 6.01
- pIC50 ([2]; Homo sapiens, T98G, read-out: IC50 in cell proliferation assay): 5.87
- pIC50 ([2]; Homo sapiens, TCC-SUP, read-out: IC50 in cell proliferation assay): 5.85
- pIC50 ([2]; Homo sapiens, THP-1, read-out: IC50 in cell proliferation assay): 5.19
- pIC50 ([2]; Homo sapiens, U2OS, read-out: IC50 in cell proliferation assay): 5.91
- pIC50 ([2]; Homo sapiens, U-87 MG, read-out: IC50 in cell proliferation assay): 5.07
- pIC50 ([2]; Homo sapiens, U-118-MG, read-out: IC50 in cell proliferation assay): 5.73
- pIC50 ([2]; Homo sapiens, UMUC3, read-out: IC50 in cell proliferation assay): 5.88
- pIC50 ([2]; Hs766T, read-out: IC50 in cell proliferation assay): 5.60
- pIC50 ([2]; L-82, read-out: IC50 in cell proliferation assay): 8.20
- pIC50 ([2]; Rh30, read-out: IC50 in cell proliferation assay): 6.33
